A short description of the data set: Relative solubility of paracetamol in the release media. Conditions: in 20% ethanol compared with 0.01 M HCl; in words. Type of data set: physicochemical.

Turning to `CC(=O)Nc1ccc(O)cc1` [paracetamol], the solubility entry is “distinctly more soluble”.

The record behind these values is US20090274731A1, “PRODUCTION OF ENVELOPED PHARMACEUTICAL DOSAGE FORMS” (ABBOTT GMBH & CO. KG, priority 2006, published 2009).
